Earlier results on one molecule are cited in patent US9820936B2, “Oral controlled release pharmaceutical compositions of Bepotastine” (LUPIN LIMITED, priority 2011, dated 2017).

The conditions of this series: background statement.

As to `O=C(O)CCCN1CCC(O[C@@H](c2ccc(Cl)cc2)c2ccccn2)CC1` [Bepotastine, (+)-(S)-4-[4-[(4-Chlorophenyl)(2-pyridyl)methoxy]piperidino]butyric acid], the half life was 2.4 ± 0.1 h.
